Like-named read-outs stand apart in the source and are kept apart here.
Experiments:
T98G = experiment: Glioblastoma multiforme cell proliferation assay (CellTiter Glo), T98G; type: cell-based; conditions: Homo sapiens; for Emax: read-out: GBM-T-98G Cell Proliferation Emax %
Experimental: (§1) Inhibition of glioblastoma multiforme cell proliferation by compounds of the present invention was evaluated in U-87 MG (ATCC; Cat. No. HTB-14; Lot. No. 5018014) and T98G (ATCC; Cat. No. CRL-1690; Lot. No. 58267513) cell lines. These are adherent cell lines isolated from glioblastoma multiforme/malignant glioma, which express both CXCR4 and BTK (see Zhou et al. 2002 and Yue et al. 2017).
(§2) Cell viability was analyzed with the CellTiter Glo Cell assay kit ([…], Cat. No. G7573, Lot. No. 0000474103), according to the manufacturer's instruction.
(§3) U-87 MG and T98G cells were seeded onto 384-well opaque-walled clear bottom plates (Corning, Cat. No. 3765, Lot. No. 34319047) in EMEM (Invitrogen, Cat. No. 11095-080; Lot. No. 2276656) supplemented with 10% FBS (Invitrogen, Cat. No. 10099-141C, Lot. No. 2145169CP), at a seeding density of 1000 or 1200 cells per well, respectively, and then incubated in 5% CO2 at 37° C. overnight.
(§4) Compounds were prepared as stock solutions of 30 mM in DMSO (Sigma, Cat. No. 276855-1L. Lot. No. SHBL5610). Compounds were added to the cells, with 10 dose points in duplicates, in 3-fold dilution from a top concentration of 30 μM (final DMSO concentration […]), and incubated in 5% CO2 at 37° C. for 96 hr.
(§5) The 384-well plates were equilibrated at room temperature for approximately 30 min. 25 μl of CellTiter-Glo® Reagent was added to each well and mixed for 10 min on an orbital shaker to induce cell lysis. The 384-well plates were incubated at room temperature for 10 min to stabilize luminescent signal. Luminescence was detected on a PerkinElmer EnVision Multimode Plate Reader (measurement time 0.1s) as relative luminescence units (RLU).

GBM-U251MG = experiment: GBM cell proliferation, U251MG (cell-based cancer efficacy assays); conditions: Homo sapiens, U-251; Table 6B
U-87 MG = experiment: Glioblastoma multiforme cell proliferation assay (CellTiter Glo), U-87 MG; type: cell-based; conditions: Homo sapiens; for Emax: read-out: GBM-U87MG Cell Proliferation Emax %
Experimental: as §1, §2, §3, §4, §5

Ramos cell line = conditions: read-out: IC50, inhibition of cell proliferation, Chu et al. 2018; cited from earlier work
CDK13/CycK = biological target: T1, CDK13/CycK (Homo sapiens, UniProt Q14004); experiment: PanQinase kinase panel: CDK13/CycK; type: biochemical; conditions: read-out: INHIBITORY EFFECT @ 1 uM: CDK13/CycK
T1 construct: purchased Reaction Biology Europe GmbH
T1 sequence (Q14004 whole entry): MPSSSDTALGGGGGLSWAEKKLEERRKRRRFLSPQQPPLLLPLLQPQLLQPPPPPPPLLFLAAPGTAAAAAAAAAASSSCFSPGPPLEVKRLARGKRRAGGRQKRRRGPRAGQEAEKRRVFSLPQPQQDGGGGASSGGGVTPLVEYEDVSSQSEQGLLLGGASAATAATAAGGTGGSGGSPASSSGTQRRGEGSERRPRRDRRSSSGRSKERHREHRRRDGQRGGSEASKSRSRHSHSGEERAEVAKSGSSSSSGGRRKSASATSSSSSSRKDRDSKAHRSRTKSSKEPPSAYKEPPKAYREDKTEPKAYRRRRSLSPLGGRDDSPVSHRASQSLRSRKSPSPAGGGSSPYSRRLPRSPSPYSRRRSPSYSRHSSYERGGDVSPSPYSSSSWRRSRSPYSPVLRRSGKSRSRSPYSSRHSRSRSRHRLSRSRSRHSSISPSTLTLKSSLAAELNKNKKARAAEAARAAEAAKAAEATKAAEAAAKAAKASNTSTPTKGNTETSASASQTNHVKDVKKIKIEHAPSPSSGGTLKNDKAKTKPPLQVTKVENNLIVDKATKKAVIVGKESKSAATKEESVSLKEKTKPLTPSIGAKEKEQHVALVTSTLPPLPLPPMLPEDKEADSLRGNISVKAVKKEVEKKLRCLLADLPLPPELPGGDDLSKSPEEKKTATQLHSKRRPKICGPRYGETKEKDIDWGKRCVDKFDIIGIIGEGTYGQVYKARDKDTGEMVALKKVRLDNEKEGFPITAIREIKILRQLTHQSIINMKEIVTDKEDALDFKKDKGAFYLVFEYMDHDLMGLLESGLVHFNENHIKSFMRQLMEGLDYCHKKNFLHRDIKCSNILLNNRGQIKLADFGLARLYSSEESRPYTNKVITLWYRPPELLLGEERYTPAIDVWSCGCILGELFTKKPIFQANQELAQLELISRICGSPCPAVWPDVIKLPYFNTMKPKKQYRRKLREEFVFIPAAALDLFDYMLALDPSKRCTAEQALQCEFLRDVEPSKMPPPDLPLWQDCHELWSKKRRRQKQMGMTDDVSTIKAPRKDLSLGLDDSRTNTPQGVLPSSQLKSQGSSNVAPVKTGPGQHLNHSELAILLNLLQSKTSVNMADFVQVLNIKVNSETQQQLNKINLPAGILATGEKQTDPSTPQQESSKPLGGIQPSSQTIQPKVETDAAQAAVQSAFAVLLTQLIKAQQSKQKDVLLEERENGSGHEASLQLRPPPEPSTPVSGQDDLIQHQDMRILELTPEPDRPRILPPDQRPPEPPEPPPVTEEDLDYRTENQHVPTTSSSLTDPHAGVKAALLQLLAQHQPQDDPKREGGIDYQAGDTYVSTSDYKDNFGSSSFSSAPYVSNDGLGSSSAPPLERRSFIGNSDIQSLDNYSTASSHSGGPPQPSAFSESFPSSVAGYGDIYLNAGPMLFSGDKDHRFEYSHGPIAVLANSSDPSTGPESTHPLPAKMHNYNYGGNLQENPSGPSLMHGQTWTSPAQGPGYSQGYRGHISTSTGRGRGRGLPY
T1 sequence (O75909 whole entry partner): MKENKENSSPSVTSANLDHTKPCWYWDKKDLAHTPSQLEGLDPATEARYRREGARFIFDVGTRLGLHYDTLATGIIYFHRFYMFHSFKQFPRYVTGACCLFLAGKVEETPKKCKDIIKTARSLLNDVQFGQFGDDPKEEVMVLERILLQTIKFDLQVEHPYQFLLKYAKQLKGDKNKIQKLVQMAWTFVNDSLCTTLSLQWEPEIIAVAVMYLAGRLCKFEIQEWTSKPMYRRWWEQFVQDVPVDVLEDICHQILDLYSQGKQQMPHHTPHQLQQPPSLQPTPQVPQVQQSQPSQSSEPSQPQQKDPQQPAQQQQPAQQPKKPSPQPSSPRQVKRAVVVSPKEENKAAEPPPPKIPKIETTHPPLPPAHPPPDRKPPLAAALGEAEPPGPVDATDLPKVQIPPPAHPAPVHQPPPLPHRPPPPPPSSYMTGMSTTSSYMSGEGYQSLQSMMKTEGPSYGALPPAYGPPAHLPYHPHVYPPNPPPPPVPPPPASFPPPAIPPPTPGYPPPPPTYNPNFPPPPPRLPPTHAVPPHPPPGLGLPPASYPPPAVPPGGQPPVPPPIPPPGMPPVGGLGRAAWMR
Experimental: Screening procedures were performed in accordance with the company's on-line protocol [accessed on-line Mar. 25, 2022 at reaction biology.com/assay-protocol-panqinase]. Inhibitory activity of 50% or greater at concentrations of 1 μM are highlighted for all five compounds tested.
For each kinase, the median value of the cpm of three wells was defined as “low control” (n=3). This value reflects unspecific binding of radioactivity to the plate in the absence of a protein kinase but in the presence of the substrate. Additionally, for each kinase the median value of the cpm of three other wells was taken as the “high control,” i.e. full activity in the absence of any inhibitor (n=3). The difference between high and low control of each enzyme was taken as 100% activity.
As part of the data evaluation the low control of each kinase was subtracted from the high control value as well as from their corresponding “compound values”. The residual activity (in %) for each compound well was calculated by using the following formula: Res. Activity (%)=100×[(signal of compound−low control)/(high control−low control)].

MWCL-1 = experiment: Apoptosis assay (annexin V flow cytometry) in Waldenstrom's Macroglobulinemia cells; type: cell-based, human; conditions: Homo sapiens; numeric; read-out: Apoptosis IC50 (μM) in single-mutant WM Cell Lines (MWCL-1)
Experimental: Waldenström's Macroglobulinemia cells (MWCL-1) and the bone marrow stromal cells (BMSCs; HS-27A) were used in this study. The MWCL-1 is a lymphoplasmacytic lymphoma established from the bone marrow aspirate of a patient diagnosed with Waldenström's Macroglobulinemia. It was provided by Dr Stephen M. Ansell (MAYO file number 2021-121; 200 First Street SW, Rochester, Minnesota). This cell line was cultured in RPMI-1640 (Fisher Scientific) containing 10% fetal bovine serum (FBS) (Sigma Aldrich, St Louis, MO), 100U/ml of Penicillin-Streptomycin (Gibco™, ThermoFisher Scientific). The HS-27A bone marrow stromal cells were obtained from ATCC. They were maintained in RPMI 1640 (Fisher Scientific) supplemented with 100U/ml of Penicillin-Streptomycin (Gibco™, ThermoFisher Scientific) and 10% FBS (TakaraBio). Cells were cultured in a 37° C. tissue culture CO2 incubator.
For studies with compounds using a co-culture system of MWCL-1 and BMSCs, BMSCs were cultured in a 96-, 48- or 24-well plates and cultured until the 90% confluence was reached. […] After 1 hour, the MWCL-Icells were added to the BMSC to create a co-culture system. The cells were co-incubated for 72 hours. After incubation time, cell viability, apoptosis, and IgM release were measured.
For studying the effect of compounds on inducing apoptosis of Waldenström Macroglobulinemia cells (MWCL-1). Cells were washed with PBS, resuspended in Annexin V binding buffer (Biolegend), and stained with Alexa Fluor 647 annexin V (Biolegend), Propidium Iodide (BD Pharmigen), and CD45 antibody (Biolegend) for 15 minutes at RT and analyzed by flow cytometry. Data were collected on an CytoFLEX S Flow Cytometer (Beckman Coulter) and analysed with FCS Express Software (De Novo Software). Annexin V positive cells were considered apoptotic.

WM patients = conditions: cited from earlier work
[1] = test system: 340 wild-type protein kinases; experiment: PanQinase wild-type kinase panel, selectivity score; type: biochemical; conditions: 1 μM; share of kinases with residual activity <50%; 340 wild-type protein kinase assays
Experimental: Screening procedures were performed in accordance with the company's on-line protocol [accessed on-line Mar.
The selectivity score for a particular compound at a particular concentration was calculated by using the following formula: Selectivity Score=(count of data points <50%)/(total number of data points).

Row | IC50 (T98G; Table 6B, read-out: GBM-T-98G Cell Proliferation IC50) [µM] | IC50 (U-87 MG; Table 6B, read-out: GBM-U87MG Cell Proliferation IC50) [µM] | Selectivity Score [1] | SMILES | Emax (T98G; Table 6B) [%] | Emax (GBM-U251MG) [%] | IC50 (GBM-U251MG) [µM] | Emax (U-87 MG; Table 6B) [%] | IC50 (Ramos cell line) [µM] | inhibition at 1 µM (CDK13/CycK) [%] | IC50 (T98G; 96 h, read-out: T98G IC50 (uM)) [µM] | Emax (T98G) [%] | IC50 (T98G; read-out: GBM-T-98G Cell Proliferation IC50 uM) [µM] | IC50 (U-87 MG; 96 h, read-out: U-87 MG IC50 (uM)) [µM] | Emax (U-87 MG) [%] | IC50 (U-87 MG; read-out: GBM-U87MG Cell Proliferation IC50 uM) [µM] | IC50 (MWCL-1) [µM] | VGPR (WM patients; WM patients with MYD88 L265P CXCR4 WT) [%] | VGPR (WM patients; WM patients with double mutations MYD88 L265P CXCR4 WHIM) [%]
1 | > 30 | 6.47 | – | Cc1cccnc1[C@@H]1CCC[C@H](c2cn3c(N4CCN(C)CC4)cccc3n2)N1C [Compound I-19] | 16 | 6 | 1.67 | 19 | – | – | – | – | – | – | – | – | – | – | –
2 | – | – | – | C=CC(=O)N1CCC[C@@H](n2nc(-c3ccc(Oc4ccccc4)cc3)c3c(N)ncnc32)C1 [Ibrutinib, ibrutinib, reference compound] | – | 57 | 0.31 | – | 0.87 | < 50 | > 30 | 73 | 24.4 | > 30 | 52 | 28.5 | 4.2 | 44.4 | 9.5
3 | – | – | 0.009 | Cc1cc(-c2ccnc(Nc3cnn(C)c3)n2)ccc1CNC(=O)N1CC(OC(C)C)C1 [BIIB-068, reference compound] | – | – | – | – | – | – | – | – | – | – | – | – | – | – | –
